Reference: patent US7091199B1, “Thienoisoxazole phenoxy unsubstituted ethyl and propyl derivatives useful as d4 antagonists” (Aventis Pharmaceuticals Inc., priority 1999, dated 2006)
Where a name gives a salt, the structure may show the parent alone. Read-outs that look alike come from different tables or passages of the source.

Columns and labels:
[1] = target: T1, human D4 receptor (D4.2 sub-type) (Homo sapiens, UniProt P21917, DEL271-302); test: D4 receptor binding assay (3H-spiperone displacement); conditions: for Ki: 3H-spiperone 0.25 nM, HEK cell membranes, human D4.2, read-out: D4 RBA Ki; for inhibition at 1 µM: read-out: D4 RBA % Inhibition (@ 1 μM)
T1 sequence (P21917 with tags, fused parts or gaps DEL271-302): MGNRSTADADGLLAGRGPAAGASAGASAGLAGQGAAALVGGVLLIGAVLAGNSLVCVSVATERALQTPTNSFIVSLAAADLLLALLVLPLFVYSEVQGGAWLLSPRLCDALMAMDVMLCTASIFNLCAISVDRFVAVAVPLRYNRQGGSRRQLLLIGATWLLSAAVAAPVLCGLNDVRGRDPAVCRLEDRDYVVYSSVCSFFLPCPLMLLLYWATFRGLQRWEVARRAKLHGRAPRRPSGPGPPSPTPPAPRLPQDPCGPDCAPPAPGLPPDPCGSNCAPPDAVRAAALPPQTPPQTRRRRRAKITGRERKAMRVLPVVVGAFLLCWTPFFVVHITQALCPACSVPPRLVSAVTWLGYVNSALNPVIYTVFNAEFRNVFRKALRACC
Protocol: D4 receptor-binding affinities of the compounds were evaluated according to their ability to reduce binding of ^3H-spiperone as compared to the reference compound clozapine. The potency of the test compound to reduce ^3H-spiperone binding directly correlated to its binding affinity for the receptor.
[…] (human embryonic kidney) cells stably transfected with human D4 receptor (D4.2 sub-type) were grown in NUNC cell factories for 5 days (75% confluency) without a media change and removed with versene (approximately 19 mg of cells per cell factory tray). The cells were then centrifuged in a Sorval centrifuge for 10 min, 5000 rpm (GS3 rotor) and the pellets quickly frozen in liquid nitrogen and stored at −80° C. until used in binding assay. When used in the assay, cells were thawed on ice for 20 min and then 10 mL of incubation buffer (50 mM Tris, 1 mM EDTA, 4 mM MgCl2, 5 mM KCl, 1.5 mM CaCl2, 120 mM NaCl, pH 7.4) was added. The cells were then vortexed to resuspend pellet and homogenized with a Kinematica, CH-6010 Kriens-LU, homogenizer for 15 seconds at setting 7. Concentration of receptor protein was determined using the Pierce BCA assay.
The incubation was started by the addition of 100 μl (50 μg protein) membrane homogenate to a solution of 300 μl incubation buffer and 100 μl (0.25 nM final conc.) ^3H-spiperone (90 Ci/mmol, Amersham, diluted in borosilicate glass vial) in 96-well polypropylene plates (1 mL per well). The plates were vortexed and incubated at room temperature for 90 minutes. The binding reaction was stopped by filtering using a Packard Harvester. The samples were filtered under vacuum over glass fibre filter plates (Whatman GF/B) presoaked for 2 hours in 0.3% polyethylenimine (PEI) in 50 mM Tris buffer (pH 7.4). The filters were then washed 6 times with 7 mL ice cold 50 mM Tris buffer (pH 7.4). The filter plates were dried overnight and 35 μl of Microscint-O (Packard) was added. The plates were sealed and counted in the Packard Top Count (3 minutes per well).
The incubation was started by the addition of 100 μl (50 μg protein) membrane homogenate to a solution of 200 μl incubation buffer, 100 μl ^3H-spiperone (90 Ci/mmol, Amersham, diluted in borosilicate glass vial to 0.25 nM final conc.) and 100 μl (30 μM final conc.) of fresh dopamine (Research Biochemicals Inc., light protected and dissolved in incubation buffer) in 96-well polypropylene plates (1 mL per well). The plates were vortexed and incubated at room temperature for 90 minutes at which time the binding reaction was stopped by filtering. The filters were washed and counted using the same procedure as in the total binding assay described above to give the non-specific binding value (NSB).
The incubation was started by the addition, in 96-well polypropylene plates (1 mL per well), of 100 μl (50 μg protein) membrane homogenate to a solution of 200 μl incubation buffer, 100 μl (0.25 nM final conc.) ^3H-spiperone (90 Ci/mmol, Amersham, diluted in borosilicate glass vial) and 100 μl of test compound that was prepared from 1 mM stock dissolved in DMSO and stored at −20° C. in polypropylene cryogenic storage vials until dilution in incubation buffer in 96-well polypropylene plates. The plates were vortexed and incubated at room temperature for 90 minutes at which time the binding reaction was stopped by filtering. The filters were washed and counted using the same procedure as in the total binding assay described above to give the displacement binding value (BD).
The test compounds were initially assayed at 1 and 0.1 μM and then at a range of concentrations chosen such that the middle dose would cause about 50% inhibition of ^3H-spiperone binding. Specific binding in the absence of test compound (B0) was the difference of total binding (BT) minus non-specific binding (NSB) and similarly specific binding (in the presence of test compound) (B) was the difference of displacement binding (BD) minus non-specific binding (NSB). […]

[2] = tested on: CD-1 or C57 male mice (MK-801 induced stereotypy); test: MK-801 Stereotypy in Mice; assay type: in vivo; conditions: Mus musculus; for inhibition in vivo at 20 mg/kg: read-out: Antag. of MK 801 Stereotypy % Inhib. @ 20 mg/kg
Protocol: Mk-801 dose-dependently induces characteristic stereotypy marked by locomotion and falling behavior. This MK-801 induced behavior can be antagonized by novel neuroleptic agents. This assay can also assess time course effects following drug administration.
CD-1 or C57 male mice are individually placed in activity boxes (8 mice/drug) and allowed to acclimate for 60 minutes. The mice are then administered test compounds either i.p., s.c., or p.o., at 15, 30, or 60 minutes prior to MK-801 (0.2 mg/kg) administration. Mice are observed for the presence of locomotion and falling behaviors 15 minutes following MK-801. For the duration of action studies the test compounds are administered i.p., s.c., or p.o., at 30, 60, 120, 180, and 240 minutes prior to MK-801 administration.

[3] = @ 1 μM test compound, 3H-spiperone binding

Structure (SMILES) | Ki [1] [nM] | inhibition at 1 µM [1, 3] [%] | other results
c1cc(OCCCNCc2ccsc2)cc(-c2noc3ccsc23)c1 [Compound 7, [3-(3-thieno[2,3-d]isoxazol-3-yl-phenoxy)-propyl]-thiophen-3-yl-methylamine] | 18 |  | inhibition in vivo at 20 mg/kg ([2]; po): 75%
FC(F)(F)c1ccc(CNCCCOc2cccc(-c3noc4ccsc34)c2)cc1 [Compound 58, [3-(3-thieno[2,3-d]isoxazol-3-yl-phenoxy)-propyl]-(4-trifluoromethylbenzyl)-amine] |  | 77 | 
Fc1ccc(CNCCCOc2cccc(-c3noc4ccsc34)c2)c(F)c1 [Compound 55, (2,4-difluoro-benzyl)-[3-(3-thieno[2,3-d]isoxazol-3-yl-phenoxy)-propyl]-amine] |  | 92 | 
NS(=O)(=O)c1ccc(CCNCCCOc2cccc(-c3noc4ccsc34)c2)cc1 [Compound 15, 4-{2-[3-(3-thieno[2,3-d]isoxazol-3-yl-phenoxy)-propylamino]-ethyl}-benzenesulfonamide] |  | 65 | 
Clc1ccc(CNCCCOc2cccc(-c3noc4ccsc34)c2)cc1 [Compound 4, (4-chloro-benzyl)-[3-(3-thieno[2,3-d]isoxazol-3-yl-phenoxy)-propyl]-amine] | 45 |  | 
c1ccc(C2CCN(CCOc3cccc(-c4noc5ccsc45)c3)CC2)cc1 [Compound 30, 3-{3-[2-(4-phenyl-piperidin-1-yl)-ethoxy]-phenyl}-thieno[2,3-d]isoxazole hydrochloride] |  |  | inhibition at 1 µM [1]: 68%
NS(=O)(=O)c1ccc(CNCCCOc2cccc(-c3noc4ccsc34)c2)cc1 [Compound 14, 4-{[3-(3-thieno[2,3-d]isoxazol-3-yl-phenoxy)-propylamino]-methyl}-benzenesulfonamide] |  | 60 | 
c1cc(OCCNCc2ccsc2)cc(-c2noc3ccsc23)c1 [Compound 33, [2-(3-thieno[2,3-d]isoxazol-3-yl-phenoxy)-ethyl]-thiophen-3-ylmethylamine hydrochloride] | 15 |  | 
COc1ccc(CNCCCOc2cccc(-c3noc4ccsc34)c2)cc1 [Compound 5, (4-methoxy-benzyl)-[3-(3-thieno[2,3-d]isoxazol-3-yl-phenoxy)-propyl]-amine] | 92 |  | 
Fc1ccc(CNCCOc2cccc(-c3noc4ccsc34)c2)c(F)c1 [Compound 49, (2,4-difluoro-benzyl)-[2-(3-thieno[2,3-d]isoxazol-3-yl-phenoxy)-ethyl]-amine] |  | 95 | 
FC(F)(F)c1ccc(CNCCOc2cccc(-c3noc4ccsc34)c2)cc1 [Compound 52, [2-(3-thieno[2,3-d]isoxazol-3-yl-phenoxy)-ethyl]-(4-trifluoromethylbenzyl)-amine] |  | 96 | 

Further lines, with some results ahead:

Ki [1] [nM] | inhibition at 1 µM [1, 3] [%] | Structure (SMILES) | other results
55 |  | c1cnc(N2CCN(CCCOc3cccc(-c4noc5ccsc45)c3)CC2)nc1 [Compound 13, 3-{3-[3-(4-pyrimidin-2-yl-piperazin-1-yl)-propoxy]-phenyl}-thieno[2,3-d]isoxazole] | inhibition in vivo at 20 mg/kg ([2]; ip): 37.5%
15 |  | Fc1cccc(CNCCOc2cccc(-c3noc4ccsc34)c2)c1 [Compound 19, (3-fluoro-benzyl)-[2-(3-thieno[2,3-d]isoxazol-3-yl-phenoxy)-ethyl]-amine] | inhibition in vivo at 20 mg/kg ([2]; po): 75%
34 |  | Clc1ccc(CNCCOc2cccc(-c3noc4ccsc34)c2)cc1 [Compound 18, (4-chloro-benzyl)-[2-(3-thieno[2,3-d]isoxazol-3-yl-phenoxy)-ethyl]-amine] | inhibition in vivo at 20 mg/kg ([2]; po): 37.5%
5.27 |  | Cc1ccc(CNCCOc2cccc(-c3noc4ccsc34)c2)cc1 [Compound 20, (4-methyl-benzyl)-[2-(3-thieno[2,3-d]isoxazol-3-yl-phenoxy)-ethyl]-amine] | inhibition in vivo at 20 mg/kg ([2]; po): 37.5%
 | 100 | c1ccc(CNCCOc2cccc(-c3noc4ccsc34)c2)cc1 [Compound 31, benzyl-[2-(3-thieno[2,3-d]isoxazol-3-yl-phenoxy)-ethyl]-amine hydrochloride] | inhibition in vivo at 20 mg/kg ([2]; po): 37.5%
 | 78 | c1ccc(N2CCN(CCOc3cccc(-c4noc5ccsc45)c3)CC2)cc1 [Compound 28, 3-{3-[2-(4-phenyl-piperazin-1-yl)-ethoxy]-phenyl}-thieno[2,3-d]isoxazole] | 
 | 73 | OC(CNCCCOc1cccc(-c2noc3ccsc23)c1)c1ccccc1 (stereo not drawn) [Compound 9, 1-phenyl-2-[3-(3-thieno[2,3-d]isoxazol-3-yl-phenoxy)-propylamino]-ethanol] | 
 | 46 | FC(F)(F)c1ccccc1CNCCCOc1cccc(-c2noc3ccsc23)c1 [Compound 57, [3-(3-thieno[2,3-d]isoxazol-3-yl-phenoxy)-propyl]-(2-trifluoromethylbenzyl)-amine] | 
12 |  | Fc1ccc(CNCCOc2cccc(-c3noc4ccsc34)c2)cc1 [Compound 17, (4-fluoro-benzyl)-[2-(3-thieno[2,3-d]isoxazol-3-yl-phenoxy)-ethyl]-amine] | ED50 ([2]; PO, MK-801 stereotypy, read-out: In Vivo ED50): 14.1 mg/kg; inhibition in vivo at 20 mg/kg ([2]; po): 62.5%
 | 90 | CC1CCN(CCOc2cccc(-c3noc4ccsc34)c2)CC1 [Compound 59, 3-{3-[2-(4-methyl-piperidin-1-yl)-ethoxy]-phenyl}-thieno[2,3-d]isoxazole] | 
14.2 |  | COc1ccccc1CNCCOc1cccc(-c2noc3ccsc23)c1 [Compound 21, (2-methoxy-benzyl)-[2-(3-thieno[2,3-d]isoxazol-3-yl-phenoxy)-ethyl]-amine] | 
 | 95 | c1cc(OCCNCc2cccs2)cc(-c2noc3ccsc23)c1 [Compound 24, [2-(3-thieno[2,3-d]isoxazol-3-yl-phenoxy)-ethyl]-thiophen-2-ylmethyl-amine] | 
 | 96 | c1cc(OCCCNC2Cc3ccccc3C2)cc(-c2noc3ccsc23)c1 [Compound 44, indan-2-yl-[3-(3-thieno[2,3-d]isoxazol-3-yl-phenoxy)-propyl]-amine] | 
7.6 |  | c1ccc(CNCCOc2cccc(-c3noc4ccsc34)c2)cc1 [Compound 16, benzyl-[2-(3-thieno[2,3-d]isoxazol-3-yl-phenoxy)-ethyl]-amine] | 
